Assay results taken from paper PMC7957578, “N-(1,3,4-Oxadiazol-2-yl)Benzamides as Antibacterial Agents against Neisseria gonorrhoeae” (International Journal of Molecular Sciences, 2021).

Tested on: Caco-2 bilayers
Assay: Caco-2 bidirectional permeability assay
Type: in vitro ADME, human
Conditions: Caco-2 permeability classification
Source text: Oral bioavailability is a highly important consideration when developing bioactive molecules as therapeutic agents. A critical factor of oral bioavailability is human intestinal absorption. The Caco-2 bidirectional permeability assay is the most widely used in vitro model for predicting if a bioactive molecule can have adequate systemic absorption. Thus, we selected HSGN-238 to act as a model to analyze the drug-like properties of newly synthesized N-(1,3,4-oxadiazol-2-yl)benzamides.
Assay and data analysis were performed by Eurofins Panlabs (MO, USA) according to a previously reported protocol. The apparent permeability coefficient (Papp) of the tested agents was calculated using the equation below: Papp(cm/s)=VR∗CR,end/Δt∗1/A∗(CD,mid−CR,mid), where VR is the volume of the receiver chamber. CR,end is the concentration of the test compound in the receiver chamber at the end time point, Δt is the incubation time, and A is the surface area of the cell monolayer. CD,mid is the calculated mid-point concentration of the test compound in the donor side, which is the mean value of the donor concentration at 0 minutes and the donor concentration at the end time point. CR,mid is the mid-point concentration of the test compound in the receiver side, which is one half of the receiver concentration at the end time point. Concentrations of the test compound were expressed as peak areas of the test compound.

SMILES: CNC(=C[N+](=O)[O-])NCCSCc1ccc(CN(C)C)o1 [Ranitidine]
- Notes (permeability class): Low Permeability Control
